In publication PMC9181543, “Lysosomal Exocytosis of Olivacine on the Way to Explain Drug Resistance in Cancer Cells” (International Journal of Molecular Sciences, 2022):

Key:
[1] = test system: LoVo cells; assay: MTT assay (mitochondrial activity), LoVo; format: cell-based; details: Homo sapiens
Experimental: (§1) The anticancer activity of tested compounds was assessed on five human cell lines selected from the panel of tumor cell lines recommended by the National Cancer Institute: A495 (lung carcinoma), CCRF/CEM (acute lymphoblastic leukemia), LoVo and LoVo/DX (two types of colorectal: non-resistant and resistant to doxorubicin), and MCF-7 (breast adenocarcinoma). In addition, the NHDF cell line (normal human dermal fibroblasts) was used to estimate cytotoxicity to noncancer cells. The A549, CCRF/CEM, LoVo, LoVo/DX, and MCF-7 cells were obtained from ECACC, and NHDF cells from LONZA, Belgium. The A549 and MCF-7 cells were grown in EMEM medium, CCRF/CEM cells in RPMI-1640, LoVo and LoVo/DX cells in DMEM/F-12, and NHDF cells in DMEM without phenol red. The cells were seeded in […] in the biological assay, as recommended by the National Cancer Institute. All culture media were supplemented with L-glutamine, penicillin, streptomycin, and 10% fetal bovine serum (FBS). Cells were incubated at 37 °C and 5% CO2. An assessment of the mitochondrial cell activity after applying tested compounds was carried out using the test MTT assay, recommended in the ISO 10993-5:2009 standard. As in the SRB assay, the cells were exposed to tested compounds after 24 h of initial incubation in 96-well plates. The MTT solution (1 mg/mL) was added to each well, and cells were incubated for 2 h. Finally, the supernatant was removed, and the formazan crystals were dissolved in isopropanol. After 30 min, absorbance at 570 nm in Victor2 microplate reader (PerkinElmer). Cell viability was determined as the IC50 ratio, i.e., the concentration of the compound in which the viability was reduced by half compared with the control.

[2] = test system: CCRF/CEM cells; assay: MTT assay (mitochondrial activity), CCRF/CEM; format: cell-based; details: Homo sapiens
Experimental: as §1

[3] = test system: A549 cells; assay: MTT assay (mitochondrial activity), A549; format: cell-based; details: Homo sapiens
Experimental: as §1

[4] = test system: MCF-7 cells; assay: MTT assay (mitochondrial activity), MCF-7; format: cell-based; details: Homo sapiens, MCF7
Experimental: as §1

[5] = test system: NHDF cells; assay: MTT assay (mitochondrial activity), NHDF; format: cell-based; details: Homo sapiens, NHDF normal cells
Experimental: as §1

[6] = test system: LoVo/DX cells; assay: MTT assay (mitochondrial activity), LoVo/DX; format: cell-based; details: Homo sapiens, LoVo/DX cells (doxorubicin-resistant)
Experimental: as §1

[7] = test system: LoVo cells; assay: SRB assay (total protein content), LoVo; format: cell-based; details: Homo sapiens, 48 h incubation
Experimental: (§2) The anticancer activity of tested compounds was assessed on five human cell lines selected from the panel of tumor cell lines recommended by the National Cancer Institute: A495 (lung carcinoma), CCRF/CEM (acute lymphoblastic leukemia), LoVo and LoVo/DX (two types of colorectal: non-resistant and resistant to doxorubicin), and MCF-7 (breast adenocarcinoma). In addition, the NHDF cell line (normal human dermal fibroblasts) was used to estimate cytotoxicity to noncancer cells. The A549, CCRF/CEM, LoVo, LoVo/DX, and MCF-7 cells were obtained from ECACC, and NHDF cells from LONZA, Belgium. The A549 and MCF-7 cells were grown in EMEM medium, CCRF/CEM cells in RPMI-1640, LoVo and LoVo/DX cells in DMEM/F-12, and NHDF cells in DMEM without phenol red. The cells were seeded in […] in the biological assay, as recommended by the National Cancer Institute. All culture media were supplemented with L-glutamine, penicillin, streptomycin, and 10% fetal bovine serum (FBS). Cells were incubated at 37 °C and 5% CO2. One of the most popular in vitro tests to evaluate the activity of compounds with potential antitumor activity is the SRB assay. The sulforhodamine B dye is used, which binds to the protein at the appropriate pH. The assay allows for assessing cell mass and, indirectly, their proliferation. The advantage of the assay is that it measures cellular protein content and not the activity of any enzymes. The SRB assay was carried out according to the National Cancer Institute procedure. Cells were incubated in a culture medium for 24 h in 96-well plates. After 24 h, the control plate for each cell line was fixed with TCA to evaluate cell culture before treatment with tested compounds. […] Cell cultures were then fixed by adding 50% TCA at 4 °C for 1 h. After removing the supernatant, the plates were washed with water and dried. […] Growth inhibition was calculated following the NCI guidelines and expressed as the GI50 ratio, i.e., the concentration of the compound in which the amount of protein was reduced by half compared with the control.

[8] = test system: LoVo/DX cells; assay: SRB assay (total protein content), LoVo/DX; format: cell-based; details: Homo sapiens, LoVo/DX cells (doxorubicin-resistant), 48 h incubation
Experimental: as §2

[9] = test system: MCF-7 cells; assay: SRB assay (total protein content), MCF-7; format: cell-based; details: Homo sapiens, MCF7, 48 h incubation
Experimental: as §2

[10] = test system: CCRF/CEM cells; assay: SRB assay (total protein content), CCRF/CEM; format: cell-based; details: Homo sapiens, 48 h incubation
Experimental: as §2

[11] = test system: NHDF cells; assay: SRB assay (total protein content), NHDF; format: cell-based; details: Homo sapiens, NHDF normal cells, 48 h incubation
Experimental: as §2

[12] = test system: A549 cells; assay: Proton pump blocking test (omeprazole) for lysosomal exocytosis; format: cell-based, human; details: 200 µM for 1 h before test compounds
Experimental: To assess whether the exocytosis of olivacine and ellipticine from cancer cells is lysosomal, a proton pump blocking test was performed. Omeprazole was added into A549 cells at a concentration of 200 µM for 1 h. The cell culture was then washed twice with PBS, and the cells were treated with tested compounds. The cell culture was assessed using an Evos FL microscope. The lysosomes were stained using LysoTracker™ Deep Red kit (L12492; Invitrogen). Cultured cells were evaluated using an Evos FL microscope, taking photos every 15 min. After treatment with olivacine or olivacine and omeprazole, analysis of mean cell fluorescence was performed from five independent replicates. In addition, 14 pictures were taken from each replicate, and 100 cells were analyzed by photomicrography using the ImageJ platform.

IC50 [1]	IC50 [2]	IC50 [3]	IC50 [4]	IC50 [6]	GI50 [7]	GI50 [8]	GI50 [9]	GI50 [10]	Structure (SMILES)	IC50 [5]	GI50 [11]	effect on exocytosis of olivacine and ellipticine [12]
10.2 ± 1.27 µM	1.03 ± 0.02 µM	13.8 ± 1.03 µM	4.33 ± 0.55 µM	86.4 ± 25.4 µM	1.62 ± 0.45 µM	14.1 ± 3.42 µM	1.44 ± 0.23 µM	0.74 ± 0.02 µM	COc1cccc2c1C(=O)c1c(O)c3c(c(O)c1C2=O)C[C@@](O)(C(=O)CO)C[C@@H]3O[C@H]1C[C@H](N)[C@H](O)[C@H](C)O1 [Doxorubicin]	18.2 ± 4.46 µM	13.7 ± 5.29 µM	
									COc1ccc2[nH]c([S+]([O-])Cc3ncc(C)c(OC)c3C)nc2c1 (stereo not drawn) [Omeprazole]			protect against exocytosis
